Assay results: patent US20080312208A1, “Pyridine Analogues” (ASTRAZENECA AB, priority 2005, published 2008)

Key:
[1] = Moisture adsorption of crystalline form on storage at 80% RH; format: physicochemical; settings: stored at 80% RH (ambient)
Procedure: The crystalline forms may be further characterised by the presence of one or more of the additional properties listed below: • (i) for Form I • (I) when characterised by thermogravimetric analysis, a weight loss of approx. 0.8% occurs in the range from 25° C. up to 205° C., and/or • (II) when characterised by differential scanning calorimetry, at a heating rate of 10° C. per minute in a closed cup with a pinhole under flowing nitrogen, a melting temperature (Tm) having an onset at about 194° C. and/or an associated endotherm of melting of about 96 J/g; and/or • (III) when stored at 80% RH (ambient) less than 0.2% moisture is adsorbed, • (i) […] • (I) when characterised by thermogravimetric analysis, a weight loss of approx. 0.2% occurs in the range from 25° C. up to 205° C., and/or • (II) when characterised by differential scanning calorimetry, at a heating rate of 10° C. per minute in a closed cup with a pinhole under flowing nitrogen, a melting temperature (Tm) having an onset at about 193° C. and/or an associated endotherm of melting of about 105 J/g.

[2] = target: T1, P2Y12 receptor (Homo sapiens, UniProt Q9H244); test: Functional inhibition of 2-Me-S-ADP induced P2Y12 signalling (35S-GTPγS, cell membranes); format: biochemical; settings: membranes from P2Y12 transfected CHO-cells, EC80 concentration of agonist 2-methyl-thio-adenosine diphosphate, 30° C. for 45 min
T1 construct: expressed in transfected cells; host or cells: CHO cells (membranes)
T1 sequence (Q9H244 whole entry): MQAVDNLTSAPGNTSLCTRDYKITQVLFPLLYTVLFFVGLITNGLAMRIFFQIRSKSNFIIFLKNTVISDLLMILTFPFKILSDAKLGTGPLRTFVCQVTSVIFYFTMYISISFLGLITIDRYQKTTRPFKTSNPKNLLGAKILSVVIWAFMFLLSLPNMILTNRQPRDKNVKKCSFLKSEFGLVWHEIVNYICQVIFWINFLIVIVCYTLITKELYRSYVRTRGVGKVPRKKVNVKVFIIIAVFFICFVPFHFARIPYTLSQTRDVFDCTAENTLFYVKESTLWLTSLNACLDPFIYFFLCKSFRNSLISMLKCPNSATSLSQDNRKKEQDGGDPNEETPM
Procedure: Functional inhibition of the P2Y12 receptor can be measured by in vitro assays using cell membranes from P2Y12 transfected CHO-cells, the methodology is indicated below.
Functional inhibition of 2-Me-S-ADP induced P2Y12 signalling: 5 μg of membranes were diluted in 200 μl of 200 mM NaCl, 1 mM MgCl2, 50 mM HEPES (pH 7.4), 0.01% BSA, 30 μg/ml saponin and 10 μM GDP. To this was added an EC80 concentration of agonist (2-methyl-thio-adenosine diphosphate), the required concentration of test compound and 0.1 μCi ^35S-GTPγS. The reaction was allowed to proceed at 30° C. for 45 min. Samples were then transferred on to GF/B filters using a cell harvester and washed with wash buffer (50 mM Tris (pH 7.4), 5 mM MgCl2, 50 mM NaCl). Filters were then covered with scintillant and counted for the amount of ^35S-GTPγS retained by the filter. Maximum activity was that determined in the presence of the agonist and minimum activity in the absence of the agonist following subtraction of the value determined for nonspecific activity. The effect of compounds at various concentrations was plotted according to the equation
y=A+((B−A)/(1+((C/x)̂D)))
and IC50 estimated where A is the bottom plateau of the curve i.e. the final minimum y value B is the top of the plateau of the curve i.e. the final maximum y value C is the x value at the middle of the curve. […]

Row | Structure (SMILES) | moisture adsorbed [1] | IC50 [2] [nM]
1 | CCOC(=O)c1cc(C#N)c(N2CCC(C(=O)NS(=O)(=O)Cc3ccccc3)CC2)nc1C [Form I, 6-(4-{[(benzylsulfonyl)amino]carbonyl}piperidin-1-yl)-5-cyano-2-methylnicotinic acid ethyl ester] | less than 0.2% | 
2 | Cc1nc(N2CC(C(=O)NS(=O)(=O)Cc3cccc(F)c3)C2)c(C#N)cc1C(=O)OC(C)C [Example 91, Isopropyl 5-cyano-6-[3-({[(3-fluorobenzyl)sulfonyl]amino}carbonyl)azetidin-1-yl]-2-methylnicotinate] |  | 460
3 | CCOC(=O)c1cc(C#N)c(N2CCC(C(=O)NS(=O)(=O)Cc3ccc(C(C)C)cc3)CC2)nc1C [Example 119, Ethyl 5-cyano-6-[4-({[(4-isopropylbenzyl)sulfonyl]amino}carbonyl)piperidin-1-yl]-2-methylnicotinate] |  | 250
